Results published in patent publication EP1370276B1, “INTERCELLULAR COMMUNICATION FACILITATING COMPOUNDS AND THEIR MEDICAL USE” (Zealand Pharma A/S, priority 2001, dated 2002).

What was measured:
[1] = system: cAMP formation in CHO cells; assay: Inhibition of forskoline stimulated cAMP formation in CHO cells; type: cell-based; conditions: 10 µM forskoline, 20 min, cells pre-treated with glucose and oxygen deprivation
Experimental: CHO cells are seeded in 96-well microtiter plates in a density of 6,000 cells/cm^2 (∼ 2,000 cells/well) and grown for 4 days in vitro in 200 µl/well of growth media as described in the previous section.
On the day of analysis cells are removed from the incubator and washed twice with 200 µl pre-warmed (37°C) D-PBS (pH 7.2) to remove serum. Cells are incubated for 10 min in glucose free D-PBS and an N2-atmosphere as described in the previous section.
CHO cells are incubated at 37° C in D-PBS (pH 7.2) containing 6 mM glucose, 2.0 mM IBMX (phospodiesterase blocker), 10 µM forskoline (stimulates cAMP formation) and increasing concentrations of test peptide. The reaction is stopped after 20 min by addition of 20 µl 0.5 M HCl and left for at least 20 min at room temperature.
The content of cAMP is analysed by mixing 20 µl of the acid cell extract into FlashPlate™ wells (NEN assay kit SMP001) containing 180 µl [^12SI]cAMP tracer solution. FlashPlates™ are incubated overnight at 4° C and plate bound radioactivity counted in TopCount (Packard Instrument). Data are calculated as described in the previous section.

human osteoblastic cells = assay: Intercellular calcium waves after mechanical stimulation, human osteoblastic cells; type: cell-based
Experimental: (§1) Human osteblast cells (hOB): Cells were isolated from human bone marrow obtained by puncture of the posterior iliac spine of healthy volunteers (aged 20-36): 10-15 ml marrow material was collected in 15 ml PBS+Ca,Mg (Life Technologies, Cat.No. 14040) with 100 U/ml Heparin (Sigma, Cat.No. H-3149). The mononuclear fraction of the marrow was isolated on a Lymphoprep gradient (Nycomed Pharma, Cat.No. 1001967), by centrifugation at 2200 rpm for 30 min. After harvesting, the mononuclear fraction was washed once with culture medium and centrifuged at 1800 rpm for 10 min. Subsequently cells were counted and plated in culture medium at 8x10^6 cells/100 mm dish. hOB medium (all reagents obtained from Life Technologies): MEM w/o Phenol Red w/ Glutamax (Cat.No. 041-93013) supplemented with 10% heat inactivated fetal calf serum (Cat.No. 10106) and 0.1% Penicillin/Streptomycin (Cat.No. 15140). Medium was changed the following day and the cells were cultured at 37°C in 5%CO2 with medium change every 7 days. After 3-4 weeks of culture the cells had reached 70% confluence. The medium was then supplemented with 100 nM Dexamethasone (Sigma, Cat.No. D-4902) for 7 days. Cells were then plated for video imaging experiments: a 25 mm #1 glass coverslip was
(§2) placed in a 35 mm dish (or each well of a 6-well multidish), cells were plated at 2.5×10^5 cells/coverslip and cultured for 2-3 days before use. […]

CHO cells = assay: In situ binding of [125I]AAP10 on intact CHO cells; conditions: overnight at 4° C
Experimental: CHO cells are seeded in 24-multi well dishes in a density of 7,900 cells/cm^2 (∼ 15,000 cells/well) and grown for 3 Days In Vitro (DIV) in 1 ml/well of F-12K Nutrient Mixture supplemented with 10% Foetal Calf Serum (FCS) and 1000 units penicillin/1000 µg streptomycin (pen/strep) in an atmosphere of 5% CO2 and 100% humidity at 37° C. The cell density has at that time increased to 295,000 cells/cm^2 (152 pgprot/cell ∼ 85 µgprot/well).
On the day of analysis cells are removed from the incubator and each well is washed twice with, depending on the experiment, either 2 ml pre-warmed (37 °C) or ice-cold (0 °C) D-PBS to remove serum. It is important to keep the period to a minimum during which cells are left without physiological solutions to avoid that they dry out during washing procedures. The cold washed cells are used directly for binding assays while the warm washed cells are used for experiments with glucose and oxygen deprivation.
The in situ binding is performed by a modified protocol based on the description by Koenig. […] Cells incubate overnight at 4° C to reach equilibrium. Each well, one at the time, is then rinsed rapidly with 2 x 1 ml D-PBS and left to dry.
0.25 ml of 0.5 % Triton-X-100 (v/v) is added to each well and cells left for at least 1 h to solubilize. The extract is transferred to counting vials, the wells rinsed with 0.25 ml water and the rinse extract added to the corresponding vials. The vials are counted in a γ-counter. Table 3. In situ binding, IC50 (nM).

[2] = system: phosphoinositol turnover in rat primary cardiomyocytes; conditions: oxygen and glucose deprivation (untreated app. 50%); conference abstract; cited from earlier work
human osteoblast = assay: Lucifer Yellow microinjection dye transfer, human osteoblasts; type: cell-based; conditions: 10 minutes, after 48 hours hypoxia 3-6% O2 (7 cells before)
Experimental: as §1, §2

## Ac-D-Tyr-D-Pro-D-4Hyp-Gly-D-Ala-Gly-NH2 [Compound 2]
[1]
  EC50: 6.2 nM
Human osteoblastic cells; 10^-8 M, medium without glucose, after ATP desensitization (1.4 cells before)
  average number of cells in the calcium wave: 2.9 cells
Human osteoblastic cells; 10^-8 mol/l, 10 minutes, after ATP desensitization (4.5 cells before)
  average number of cells in the calcium wave: 6.2 cells
CHO cells
  IC50: 0.5 nM
[2]
  noradrenalin-induced PI turnover, % of the normal level: ~90%
Human osteoblast
  dye transfer (number of cells containing Lucifer Yellow): 9 cells
